Test results from paper PMC10716780, “The multistep oxidation of cholesterol to pregnenolone by human cytochrome P450 11A1 is highly processive” (The Journal of Biological Chemistry, 2023).
Read-outs that look alike come from different tables or passages of the source.

Target: T1, human P450 11A1 (Homo sapiens, UniProt P05108)
T1 construct: M A S T R S P R P F N E I P S P G D N; Met-Ala (N-terminal start residues in place of the transit peptide and Ile40) (N); made in house; host or cells: E. coli C41(DE3) with GroES/GroEL, vector pET23C(+)
T1 sequence (P05108 41-521 limits assumed): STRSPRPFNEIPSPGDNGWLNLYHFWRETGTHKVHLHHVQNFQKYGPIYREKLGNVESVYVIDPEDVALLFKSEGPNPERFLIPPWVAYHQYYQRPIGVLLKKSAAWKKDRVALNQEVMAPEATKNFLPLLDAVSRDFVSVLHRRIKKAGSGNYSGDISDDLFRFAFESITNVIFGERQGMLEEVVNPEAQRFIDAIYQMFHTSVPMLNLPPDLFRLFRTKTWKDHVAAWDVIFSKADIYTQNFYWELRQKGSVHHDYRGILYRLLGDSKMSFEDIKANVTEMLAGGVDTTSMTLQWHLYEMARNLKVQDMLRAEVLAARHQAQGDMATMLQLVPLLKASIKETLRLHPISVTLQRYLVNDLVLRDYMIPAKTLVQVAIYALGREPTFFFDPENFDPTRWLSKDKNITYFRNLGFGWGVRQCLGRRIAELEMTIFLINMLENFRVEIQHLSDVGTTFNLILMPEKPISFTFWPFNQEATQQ
Test: Steady-state spectral (type I) binding titration, Kd determination
Description: Ligand binding constants were determined from the low-to high-spin (hypsochromic) spectral transition that occurs at the P450 heme as substrate entering the active site replaces water as the sixth axial heme ligand. […] As a result, we subsequently measured koff values of the P450-sterol complexes, which were consistent with the low Kd values observed (see below). Binding titrations were repeated in the presence of Adx (1 M equivalent, Fig. 6), although no significant effect was observed, even when Adx was added in excess (10-fold with cholesterol as the substrate, data not shown).
Spectra were recorded using either an OLIS-Cary 14 or OLIS-Aminco DW2a instrument (On-Line Instrument Systems) in the split-beam mode. The OLIS-Cary 14 instrument was used in the P450 11A1 titrations with a 10-cm cell (Starna Cells, catalog no. 34-Q-100, volume 25 ml).
Kd values were determined by difference spectroscopy as previously reported ([33], [43]) but with some modifications. Briefly, a long-path quartz cuvette (10 cm, 25 ml) containing P450 11A1 (0.1 μM, in 100 mM potassium phosphate buffer (pH 7.4)) was prepared and a baseline was recorded in an OLIS-Cary 14 spectrophotometer. Where indicated, the redox partner Adx was added in equimolar concentration (0.1 μM) to P450. Sterol solutions (in 45% HPCD, w/v) were added to the cuvette, the contents of the cuvette were inverted to mix, and a spectrum was recorded (350–500 nm) after each addition. The total volume added to each cuvette was kept ≤2% (v/v, 0.25 ml) in the assay. The maximum absorbance difference (usually ΔA390−A418) was plotted against the total sterol concentration, and the data were fit to a quadratic equation in GraphPad Prism software (GraphPad, https://www.graphpad.com) to estimate the dissociation constant (Kd). A quadratic equation was used to correct the ligand concentration for the enzyme-bound concentration (used as Y=B+A/2∗1/E∗((Kd+E+X)−(Kd+E+X)^2−(4∗E∗X)) (or Y = B + (A/2)∗(1/E)∗((Kd + E + X)-sqrt((Kd + E + X)∧2 -(4∗E∗X)) in Prism software), where E = enzyme concentration, Kd = dissociation constant, and X = […]).

[1] = 0.10 μM P450 11A1, 10 cm cuvette, with 0.10 μM Adx, quadratic fit, read-out: Kd, (+) Adx
[2] = 0.10 μM P450 11A1, 10 cm cuvette, without Adx, quadratic fit, read-out: Kd, (−) Adx

CC(C)CC[C@@H](O)[C@](C)(O)[C@H]1CC[C@H]2[C@@H]3CC=C4C[C@@H](O)CC[C@]4(C)[C@H]3CC[C@]12C [20R,22R-(OH)2 Chol, (20R,22R)-Cholest-5-ene-3β,20,22-triol]
Kd [1]: 0.04 ± 0.01 µM | Kd [2]: 0.03 ± 0.02 µM

CC(=O)[C@H]1CC[C@H]2[C@@H]3CC=C4C[C@@H](O)CC[C@]4(C)[C@H]3CC[C@]12C [Pregnenolone]
Kd [1]: 0.56 ± 0.12 µM | Kd [2]: 0.48 ± 0.22 µM

CC(C)CC[C@H](O)[C@](C)(O)[C@H]1CC[C@H]2[C@@H]3CC=C4C[C@@H](O)CC[C@]4(C)[C@H]3CC[C@]12C [20R,22S-(OH)2 Chol, (20R,22S)-Cholest-5-ene 3β,20,22-triol]
Kd [1]: 0.09 ± 0.02 µM | Kd [2]: 0.12 ± 0.03 µM

CC(C)CC[C@@H](O)[C@@H](C)[C@H]1CC[C@H]2[C@@H]3CC=C4C[C@@H](O)CC[C@]4(C)[C@H]3CC[C@]12C [22R-OH Chol, 22R-hydroxycholesterol]
Kd (Kd, 100 nM P450 11A1, 10-cm cell, quadratic fitting): ~0.02 µM | Kd (Kd, (+) Adx, 0.10 μM P450 11A1, 10 cm cuvette, with 0.10 μM Adx, quadratic fit): 0.02 ± 0.003 µM | Kd (Kd, (−) Adx, 0.10 μM P450 11A1, 10 cm cuvette, without Adx, quadratic fit): 0.02 ± 0.01 µM

CC(C)CCC[C@@H](C)[C@H]1CC[C@H]2[C@@H]3CC=C4C[C@@H](O)CC[C@]4(C)[C@H]3CC[C@]12C [Cholesterol]
Kd [1]: 0.11 ± 0.01 µM | Kd [2]: 0.12 ± 0.01 µM
